# ChEMBL document CHEMBL1138149, “Optimization of a privileged structure leading to potent and selective human melanocortin subtype-4 receptor ligands” (Bioorg Med Chem Lett, 2006)
# Assays:
# [1] = biological target: T1, Melanocyte-stimulating hormone receptor (Homo sapiens, UniProt Q01726); assay: Displacement of [125I]NDP-alpha-MSH from human MC1BR expressed in CHO cells; type: cell-based
# Target sequence in this assay (Q01726 whole entry): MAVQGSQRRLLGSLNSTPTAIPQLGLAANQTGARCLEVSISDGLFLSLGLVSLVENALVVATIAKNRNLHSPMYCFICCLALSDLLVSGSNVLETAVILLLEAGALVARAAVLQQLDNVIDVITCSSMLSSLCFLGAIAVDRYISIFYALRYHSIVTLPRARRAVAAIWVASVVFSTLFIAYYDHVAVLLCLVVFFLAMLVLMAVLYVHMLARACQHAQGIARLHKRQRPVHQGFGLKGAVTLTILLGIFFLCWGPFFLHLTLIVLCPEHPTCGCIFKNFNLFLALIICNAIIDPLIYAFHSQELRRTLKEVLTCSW
# [2] = biological target: T2, Melanocortin receptor 4 (Homo sapiens, UniProt P32245); assay: Displacement of [125I]NDP-alpha-MSH from human MC4R expressed in CHO cells; type: cell-based
# T2 sequence (P32245 whole entry): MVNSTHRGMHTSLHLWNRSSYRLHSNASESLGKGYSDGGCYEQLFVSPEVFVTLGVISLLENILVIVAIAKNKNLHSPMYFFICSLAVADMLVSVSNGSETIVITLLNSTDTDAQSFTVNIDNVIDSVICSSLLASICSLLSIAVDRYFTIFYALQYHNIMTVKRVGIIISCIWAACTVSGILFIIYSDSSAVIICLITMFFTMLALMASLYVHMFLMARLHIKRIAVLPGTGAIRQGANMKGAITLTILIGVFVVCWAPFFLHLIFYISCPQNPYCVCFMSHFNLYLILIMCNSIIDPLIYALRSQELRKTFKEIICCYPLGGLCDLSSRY
# [3] = biological target: T3, Melanocortin receptor 3 (Homo sapiens, UniProt P41968); assay: Displacement of [125I]NDP-alpha-MSH from human MC3R expressed in CHO cells; type: cell-based
# T3 sequence (P41968 whole entry): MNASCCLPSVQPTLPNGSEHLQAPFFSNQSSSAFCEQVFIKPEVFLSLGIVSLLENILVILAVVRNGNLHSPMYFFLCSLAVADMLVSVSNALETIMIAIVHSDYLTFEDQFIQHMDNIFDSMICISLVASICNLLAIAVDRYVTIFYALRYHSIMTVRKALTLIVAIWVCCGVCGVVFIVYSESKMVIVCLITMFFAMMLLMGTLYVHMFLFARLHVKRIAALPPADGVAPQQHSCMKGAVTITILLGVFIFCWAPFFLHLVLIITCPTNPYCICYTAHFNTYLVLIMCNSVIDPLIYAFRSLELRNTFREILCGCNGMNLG
# [4] = biological target: T4, Melanocortin receptor 5 (Homo sapiens, UniProt P33032); assay: Displacement of [125I]NDP-alpha-MSH from human MC5R expressed in CHO cells; type: cell-based
# T4 sequence (P33032 whole entry): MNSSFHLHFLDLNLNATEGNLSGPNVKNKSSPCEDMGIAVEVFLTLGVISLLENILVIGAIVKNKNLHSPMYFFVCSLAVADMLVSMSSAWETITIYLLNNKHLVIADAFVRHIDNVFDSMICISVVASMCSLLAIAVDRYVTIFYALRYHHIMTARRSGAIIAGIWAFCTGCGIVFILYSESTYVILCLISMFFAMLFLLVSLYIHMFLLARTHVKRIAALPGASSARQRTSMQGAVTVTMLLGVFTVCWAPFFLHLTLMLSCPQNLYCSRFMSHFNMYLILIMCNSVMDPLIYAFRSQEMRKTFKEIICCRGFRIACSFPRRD
# [5] = biological target: T1, Melanocyte-stimulating hormone receptor; assay: Activity against human MC1BR by cAMP accumulation; type: functional
# Target sequence in this assay (Q01726 whole entry): as the sequence (Q01726 whole entry) above
# [6] = biological target: T1, Melanocyte-stimulating hormone receptor; assay: Activity against human MC1R by percentage of cAMP accumulation at 10 uM; type: functional
# Target sequence in this assay (Q01726 whole entry, looked up): as the sequence (Q01726 whole entry) above
# [7] = biological target: T2, Melanocortin receptor 4; assay: Activity against human MC4R by cAMP accumulation; type: functional
# [8] = biological target: T2, Melanocortin receptor 4; assay: Activity against human MC4R by percentage of cAMP accumulation at 10 uM; type: functional
# [9] = biological target: T3, Melanocortin receptor 3; assay: Activity against human MC3R by cAMP accumulation; type: functional
# [10] = biological target: T3, Melanocortin receptor 3; assay: Activity against human MC3R by percentage of cAMP accumulation at 10 uM; type: functional
# [11] = biological target: T4, Melanocortin receptor 5; assay: Activity against human MC5R by cAMP accumulation; type: functional
# [12] = biological target: T4, Melanocortin receptor 5; assay: Activity against human MC5R by percentage of cAMP accumulation at 10 uM; type: functional
Structure (SMILES),IC50 [1] [nM],IC50 [2] [nM],IC50 [3] [nM],IC50 [4] [nM],EC50 [5] [nM],%max [6] [%],EC50 [7] [nM],%max [8] [%],EC50 [9] [nM],%max [10] [%],EC50 [11] [nM],%max [12] [%]
O=C(N[C@H](Cc1ccc(Cl)cc1)C(=O)N1CCC(CN2CCOC2=O)(C2CCCCC2)CC1)[C@H]1Cc2ccccc2CN1,2000,4,460,180,1300,56,5.8,76,,11,280,48
CN1CCN(CC2(C3CCCCC3)CCN(C(=O)[C@@H](Cc3ccc(Cl)cc3)NC(=O)[C@H]3Cc4ccccc4CN3)CC2)C1=O,1800,4.3,660,160,950,43,16,88,1200,24,460,63
C[C@@H]1COC(=O)N1CC1(C2CCCCC2)CCN(C(=O)[C@@H](Cc2ccc(Cl)cc2)NC(=O)[C@H]2Cc3ccccc3CN2)CC1,1700,1.3,210,110,1300,40,1.3,68,370,15,400,51
O=C(N[C@H](Cc1ccc(Cl)cc1)C(=O)N1CCC(CN2C(=O)OCC23CCC3)(C2CCCCC2)CC1)[C@H]1Cc2ccccc2CN1,2100,7.9,400,210,1700,25,15,65,,6,1200,32
O=C(N[C@H](Cc1ccc(Cl)cc1)C(=O)N1CCC(CN2C(=O)OCC23CC3)(C2CCCCC2)CC1)[C@H]1Cc2ccccc2CN1,2400,4.6,490,170,2600,48,6.1,68,990,15,620,36
C[C@H]1COC(=O)N1CC1(C2CCCCC2)CCN(C(=O)[C@@H](Cc2ccc(Cl)cc2)NC(=O)[C@H]2Cc3ccccc3CN2)CC1,2400,4.5,840,220,2100,72,8.6,90,640,19,400,53
O=C(N[C@H](Cc1ccc(Cl)cc1)C(=O)N1CCC(Cn2cncn2)(C2CCCCC2)CC1)[C@H]1Cc2ccccc2CN1,,,,,,95,,,,32,,61

# Now from value to molecule:
IC50 [1] [nM],IC50 [2] [nM],IC50 [3] [nM],IC50 [4] [nM],EC50 [5] [nM],%max [6] [%],EC50 [7] [nM],%max [8] [%],EC50 [9] [nM],%max [10] [%],EC50 [11] [nM],%max [12] [%],Structure (SMILES)
1100,8.1,630,630,970,26,14,95,550,37,3600,51,CCOC(=O)N(CC1(C2CCCCC2)CCN(C(=O)[C@@H](Cc2ccc(Cl)cc2)NC(=O)[C@H]2Cc3ccccc3CN2)CC1)C(C)C
1300,0.91,310,170,680,41,5.3,67,540,19,660,41,O=C(N[C@H](Cc1ccc(Cl)cc1)C(=O)N1CCC(CN2CCCS2(=O)=O)(C2CCCCC2)CC1)[C@H]1Cc2ccccc2CN1
1300,2.1,380,200,1500,39,5.6,86,590,23,800,48,CC(C)N(CC1(C2CCCCC2)CCN(C(=O)[C@@H](Cc2ccc(Cl)cc2)NC(=O)[C@H]2Cc3ccccc3CN2)CC1)S(C)(=O)=O
1100,4.8,520,150,980,39,16,82,880,23,480,48,O=C(N[C@H](Cc1ccc(Cl)cc1)C(=O)N1CCC(CN2CCNC2=O)(C2CCCCC2)CC1)[C@H]1Cc2ccccc2CN1
1100,0.8,230,80,550,35,2.4,82,,6,340,38,CC1(C)COC(=O)N1CC1(C2CCCCC2)CCN(C(=O)[C@@H](Cc2ccc(Cl)cc2)NC(=O)[C@H]2Cc3ccccc3CN2)CC1
1200,0.62,760,190,460,27,5.8,74,450,18,850,39,CC1(C)CCN(CC2(C3CCCCC3)CCN(C(=O)[C@@H](Cc3ccc(Cl)cc3)NC(=O)[C@H]3Cc4ccccc4CN3)CC2)S1(=O)=O
